The record followed here is US20120252773A1, “Method and composition for inhibiting cell proliferation and angiogenesis” (priority 2005, published 2012).

Assay [1] deals with Human Dermal Microvascular Endothelial Cells (HDMVEC). In words: Growth inhibition of HDMVEC cells, MTT, 7 days. The class given is cell-based. Particulars: Endothelial cell. As for the experimental part:
To measure the inhibitory activity of (2) on growth of HDMVEC cells (Clonetics, San Diego, Calif.), 2,000 cells were seeded in each well of a 96-well plate in […] of EGM medium (Clonetics) supplemented with 5% fetal bovine serum (Sigma). The plate was incubated at 37° C. in a tissue culture incubator for 24 h, and then various concentrations of (2) dissolved in EGM were added to each well in 5-10 μl aliquots. Four wells were used for each concentration. Medium in each well was renewed with fresh test solution added every other day. After 7 days of culture, the viable cells were measured using reagents from an MTT kit (Promega Corporation, Madison, Wis.), using instructions provided by the supplier. The number of viable cells in treated wells relative to those in control wells gave the percentage of inhibition.
The procedures of Example 3 were carried out to evaluate the inhibitory effect of various compounds of the invention on the growth of HDMVEC cells (Clonetics, San Diego, Calif.).

In assay [2] the target is T1, Human recombinant estrogen receptor-α (ER-α) (Homo sapiens, UniProt P03372).
T1 construct: purchased PanVera Corporation (Madison, Wis.)
T1 sequence (P03372 1-595): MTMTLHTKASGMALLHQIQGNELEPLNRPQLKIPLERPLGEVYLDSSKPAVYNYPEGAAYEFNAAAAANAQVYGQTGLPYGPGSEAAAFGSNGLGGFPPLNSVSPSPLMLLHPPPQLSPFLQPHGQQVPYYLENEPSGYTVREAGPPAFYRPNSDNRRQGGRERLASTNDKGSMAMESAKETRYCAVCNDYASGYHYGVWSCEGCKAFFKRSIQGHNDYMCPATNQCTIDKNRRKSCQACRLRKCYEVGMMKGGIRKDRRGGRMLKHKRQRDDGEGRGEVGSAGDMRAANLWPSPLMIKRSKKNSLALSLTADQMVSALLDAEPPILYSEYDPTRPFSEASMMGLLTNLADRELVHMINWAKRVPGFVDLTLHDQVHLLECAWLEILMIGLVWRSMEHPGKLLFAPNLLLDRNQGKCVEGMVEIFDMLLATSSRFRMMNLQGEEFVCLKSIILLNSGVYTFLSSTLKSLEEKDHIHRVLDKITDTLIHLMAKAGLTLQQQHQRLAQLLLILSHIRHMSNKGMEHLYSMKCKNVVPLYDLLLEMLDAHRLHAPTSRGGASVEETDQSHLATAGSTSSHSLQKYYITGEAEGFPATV
In words: Estrogen receptor binding assay, 3H-17β-estradiol displacement, ER-α. Particulars: 4° C. overnight. As for the experimental part: Human recombinant estrogen receptor-α (ER-α) and estrogen receptor-β (ER-β) were obtained from PanVera Corporation (Madison, Wis.) to conduct the binding assay. To measure the binding affinity of (2), various concentrations of (2) or 17β-estradiol were incubated with either ER-α or ER-β receptor in the presence of a fixed amount of ^3H-17β-estradiol at 4° C. overnight. At the end of the incubation, the free- and bound-3H-estradiol were separated following the instructions provided by the manufacturer using hydroxylapatite.

Assay [3] relates to human endometrial Ishikawa cells. In words: Estrogenic activity, alkaline phosphatase, Ishikawa cell-based assay. Particulars: 72 hours. As for the experimental part: Ishikawa cell based assays were run in parallel on human endometrial Ishikawa cells treated with compound (2) or with 2-methoxyestradiol. 2-Methoxyestradiol is a compound reported in the literature as an anti-angiogenic agent. Cells were cultured in 96-well plates for 48 hours in estrogen- and phenol red-free medium (DMEM/Hamm's F12 medium) containing 5% fetal bovine serum stripped of endogenous estrogens with dextran coated charcoal (Sigma). Compound (2) or other test compounds were then added to the cells and culturing was continued for an additional 72 hours. To the control cells (no (2)), 10^−9 M of […] was added. At the end of 72 hours, alkaline phosphatase activity was measured by adding 5 mM p-nitrophenyl phosphate, 0.24 mM MgCl2, and 1 M diethanolamine (pH 9.8) to the cells while the 96-well plates were kept on ice. The plates were then warmed to room temperature, and the yellow color from the production of p-nitrophenol was measured after 2-3 hours using an ELISA plate reader at a wavelength of 405 nm. The estrogenic activity was defined as the alkaline phosphatase activity stimulated by the test compounds alone as a percentage of that stimulated by estradiol at 10^−9 M. Stimulation by estradiol at 10^−9 M was taken as 100%.

Assay [4] has as its system Chick Chorioallantoic Membrane (CAM). In words: Chick chorioallantoic membrane (CAM) assay, blood vessel density. The class given is in vivo. To be noted: 12.5 μg per embryo in 0.5% methylcellulose, vs vehicle control. As to the method:
A CAM assay was conducted as previously described (K. Amin, J. Li, and W-R. Chao, Cancer Biol. Ther. 2: 173-178, (2003). Briefly, fresh fertile eggs were incubated in a standard egg incubator at 37° C. for 3 days. On Day 3, eggs were cracked under sterile conditions and embryos were placed into 20×100 mm sterile plastic Petri dishes and cultivated at 37° C. in an embryo incubator with a water reservoir on the bottom shelf. Air was continuously bubbled into the water reservoir using a small pump so that the humidity in the incubator was kept constant. On Day 6, a sterile silicon “o” ring was placed on each CAM, and test compound (2) dissolved in 0.5% methylcellulose was delivered into each “o” ring under sterile conditions. Embryos were returned to the incubator. Control embryos received 10 μL of vehicle alone, while 12.5 μg of (2) was delivered to test embryos. On Day 8, embryos were removed from the incubator and kept at room temperature while blood vessel density was determined under each “o” ring using an image capturing system at a magnification of 160×.

Each structure is given as a SMILES string. Read-outs that look alike come from different tables or passages of the source.

As a reminder, the IC50 is the concentration that inhibits the measured activity by half. For `C[C@@H]1Cc2cc(O)ccc2C2CCC3(C)/C(=C/COCCN(C)C)CCC3C21` (stereo partly drawn) [Compound (2), (E)-3-Hydroxy-7α-methyl-21-[(2-dimethylamino)ethoxy]-19-norpregna-1,3,5(10),17(20)-tetraene], the IC50 was roughly 0.08 µM in assay [1] (168 h, 7 days of culture, MTT, read-out: IC50 value, growth of HDMVEC cells) and 0.08 µM in assay [1] (HDMVEC growth, procedures of Example 3, read-out: Inhibitory Effect (IC50 Value)). The “binding affinity (relative to non-radiolabeled estradiol, 50% displacement of 3H-estradiol)” value in assay [2] is 3. For the same molecule, in assay [3], the “estrogenic activity (alkaline phosphatase stimulation relative to estradiol at 10^−9 M)” value is “essentially no such activity”. Also, the blood vessel density entry in assay [4] was “drastically decreased the blood vessel density”.
